Where two headings read alike, the source gives them in different places.
Assays:
[1] = target: HCMV protease (Assemblin) (Human cytomegalovirus, UniProt P16753); assay: Enzymatic assay for HCMV protease (assemblin) inhibitors; type: biochemical; settings: pNA substrate, 30 min preincubation
Method: Assemblin protease activity was determined using a chromogenic para-nitroanilide (pNA) substrate based on the hCMV maturation cleavage site, succinyl-AGVVNA-para-nitroanilide. […] Potential protease inhibitors were dissolved in DMSO and 10 μL were added to the wells of a 96-well plate (Dynatech, Immulon 1). Enzyme was diluted to 4.8 μg/mL in assay buffer (10 mM sodium phosphate, pH 7.4, 150 mM sodium acetate, 0.1% CHAPS, 20% glycerol) and 100 μL were added to each well. Following a 30 minute incubation at room temperature, 50 μL substrate (1 part 20 mM succinyl-AGVVNA-paranitroanilide (SEQID:1) in DMSO plus 9 parts assay buffer) were added, and periodic readings taken in a microplate reader at 405 nm relative to 650 nm. Activities were expressed as milliabsorbance unit (mAU) change per minute. Inhibitor potency was determined by comparison with incubations lacking inhibitor, which under these conditions gave an increase of 0.5-1 mAU/min. No increase was seen when enzyme was omitted. Results [IC50 (μM)] are included in Table 1.
The construction also encoded six additional histidine residues at the amino terminus of the protease. These additional histidine residues provided an affinity ligand by which it was purified using nickel-nitriloacetic acid-agarose (Qiagen).
The purified protease was stored as a 1-3 mg/ml stock solution in 20 mM HEPES buffer, pH 7.4; containing 20% (v/v) glycerol. This stock was diluted with assay buffer to 4.8 μg/ml. A 100 μL aliquot of this solution was used in the enzyme reaction.
A specific substrate was synthesized based on the cleavage specificity of HCMV protease at the “maturation site” of the assembly protein (F. Liu and B. Roizman, J. Virol., 65, 5149 (1991), and A. Welch, et al, J. Virol., 65, 4091 (1991)). The assembly protein maturation site has the sequence . . . AGVVNA*SCRLATA . . .; the substrate used was succinyl-AGVVNA-PNA (SEQID:1) which was prepared by standard peptide synthetic methods such as that described in Bodansky and Bodansky, “The Practice of Peptide Synthesis” (1984), and was stored as a stock solution at 20 mM in dimethyl sulfoxide. This was diluted 10-fold with assay buffer to give a concentration of 2 mM just before use. An aliquot of 50 μL was used in the reaction
An assay Buffer (10 mM sodium phosphate buffer, pH 7.4; 150 mM sodium acetate; 0.1% CHAPS; and 20% (v/v) glycerol) was used to dilute stock solutions of enzyme and substrate.

[2] = tested on: human foreskin fibroblasts; type: cell-based; settings: 96 h
Excerpt: (§1) These complimentary assays tested the ability of a compound to inhibit the production of new virus and the toxicity of the compound to the host cells. It was important that both assays be performed simultaneously in order to compare the results directly since, toxicity may indirectly reduce viral yield.
Viral yield was estimated by measuring the amount of a viral antigen produced 4 days post infection with a monoclonal antibody to an abundant “immediate early” viral protein. An enzyme-linked (horseradish peroxidase) secondary antibody specific to the primary (mouse) antibody was used to measure the amount of viral antigen. Test compounds were diluted to 2-times the desired final concentration in DMEM+5% FBS. One hundred microliters of this solution was placed in each well of a 96-well plate. This was performed once for the antiviral 96-well plate and again for a cytotoxicity plate. Two controls were also included for both plates; a no drug control and a no virus control. Ganciclovir was routinely tested in antiviral and cytotoxicity plates as a reference standard because it has known antiviral activity for HCMV. All cells were prepared by harvesting human foreskin fibroblasts, with trypsin and re-suspending at a concentration of 5×10^5 cells per ml in DMEM. Infected cells were prepared by infecting these with HCMV (strain AD169) at a multiplicity of infection=0.2. […]

[3] = tested on: human foreskin fibroblasts; type: cell-based
Excerpt: as §1
Viral yield was estimated by measuring the amount of a viral antigen produced 4 days post infection with a monoclonal antibody to an abundant “immediate early” viral protein. An enzyme-linked (horseradish peroxidase) secondary antibody specific to the primary (mouse) antibody was used to measure the amount of viral antigen. Test compounds were diluted to 2-times the desired final concentration in DMEM+5% FBS. One hundred microliters of this solution was placed in each well of a 96-well plate. This was performed once for the antiviral 96-well plate and again for a cytotoxicity plate. Two controls were also included for both plates; a no drug control and a no virus control. Ganciclovir was routinely tested in antiviral and cytotoxicity plates as a reference standard because it has known antiviral activity for HCMV. All cells were prepared by harvesting human foreskin fibroblasts, with trypsin and re-suspending at a concentration of 5×10^5 cells per ml in DMEM. Infected cells were prepared by infecting these with HCMV (strain AD169) at a multiplicity of infection=0.2. One hundred microliters of uninfected cells (5×10^4 cells) were added to the appropriate wells of the cytotoxicity plate. In a similar manner 100 μl of infected cells (5×10^4 cells) were added to the appropriate wells of the antiviral plate. […]
In this assay, HCMV replication was monitored by the production of E. coli beta-galactosidase by the engineered virus RC256 [Spaete and Mocarski, Proc. Nat. […] The reaction was stopped with 100 μl 1M CAPS buffer, pH=11.0, per well and the optical density was read at 410 nanometers. Ganciclovir was used as a positive control and the EC50 was determined as described above for the HCMV ELISA. […]

[4] = target: T1, Bovine pancreas α-chymotrypsin (Bos taurus, UniProt P00766, DEL14-15/DEL147-148); assay: Chymotrypsin assay; type: biochemical
T1 construct: purchased Sigma type II; host or cells: bovine pancreas
Method: The chymotrypsin assay was modified from the method of Delmar et al [Anal. Biochem., 99, 316-320 (1979)]. Bovine pancreas α-chymotrypsin (type II, Sigma) was dissolved in 0.001 N HCl at 1 mg/ml and further diluted 1/600 in assay buffer (0.1 M Tris, pH 7.8, containing 0.1 M CaCl2) before use. 20 μl of test compound in DMSO (or DMSO alone), 100 μl of assay buffer and 30 μl of enzyme were added to 96 well plates, mixed and pre-incubated for 30 minutes at ambient temperature. Reaction was initiated by addition of 50 μl of 0.2 mM N-succinyl-Ala-Ala-Pro-Phe-p-nitroanilide (Sigma; 2 mM in DMSO diluted 1/10 in assay buffer before use). The increase in absorbance at 405 nm was monitored for 10 minutes with a Biotek EL340 plate reader.

HCMV protease (Assemblin), sequence (P16753 1-256): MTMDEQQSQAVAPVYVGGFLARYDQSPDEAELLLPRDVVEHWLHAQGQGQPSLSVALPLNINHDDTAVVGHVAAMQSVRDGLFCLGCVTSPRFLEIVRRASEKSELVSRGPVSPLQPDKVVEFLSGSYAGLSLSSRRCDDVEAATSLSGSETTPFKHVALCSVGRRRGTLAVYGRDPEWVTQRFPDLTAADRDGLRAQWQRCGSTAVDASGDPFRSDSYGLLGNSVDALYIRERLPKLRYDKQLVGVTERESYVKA

| IC50 [1] | melting point | Compound | other results |
| --- | --- | --- | --- |
| 26 µM |  | O=C(Nc1ccccc1C(=O)C(F)(F)F)c1cc2ccccc2s1 [Example 9, N-[2-(2,2,2-Trifluoro-1-oxoethyl)phenyl]-1-benzothiophene-2-carboxamide] | Antiviral Activity TD50 ([3]; 3 days): > 100 µM; Chymotrypsin % @ Conc. (μM) ([4]; @ 100 μM): 48% @ 100 |
|  | 134 to 135 °C | O=C(COc1ccc(Cl)cc1)Nc1ccccc1C(=O)C(F)(F)F [Example 14, N-[2-(2,2,2-Trifluoro-1-oxoethyl)phenyl]4-chlorophenoxyacetamide] |  |
| 8.3 µM |  | O=C(Nc1ccc(I)cc1C(=O)C(F)(F)F)c1ccco1 [Example 13, N-[4-Iodo-2-(2,2,2-trifluoro-1-oxoethyl)phenyl]furan-2-carboxamide] | Antiviral Activity TD50 [3]: > 100 µM |
| 36 µM | 130 to 132 °C | O=C(Nc1ccccc1C(=O)C(F)(F)F)c1cc2ccccc2o1 [Example 16, N-[2-(2,2,2-Trifluoro-1-oxoethyl)phenyl]benzofuranyl-2-carboxamide] |  |
| 8.5 µM | 131.5 to 132 °C | COc1ccccc1C(=O)Nc1ccccc1C(=O)C(F)(F)C(=O)NC(C)C [Example 17, N-[2-(3-(2-Propylamino)-3-oxo-2,2-difluoro-1-oxopropyl)phenyl]2-methoxyphenylcarboxamide] |  |
|  | 188 to 193 °C | O=C(Nc1ccccc1C(=O)C(F)(F)F)c1cc2ccccc2[nH]1 [Example 15, N-[2-(2,2,2-Trifluoro-1-oxoethyl)phenyl]indolyl-2-carboxamide] |  |

More lines, now with the values behind:

| Compound | IC50 [1] | melting point | other results |
| --- | --- | --- | --- |
| O=C(CCc1ccccc1)Nc1cc(F)ccc1C(=O)C(F)(F)F [Example 2, N-[5-Fluoro-2-(2,2,2-trifluoro-1-oxoethyl)phenyl]benzenepropanamide] | 5.3 µM |  |  |
| O=C(CCc1ccccc1)Nc1cc([N+](=O)[O-])ccc1C(=O)C(F)(F)F [Example 7, N-[5-Nitro-2-[2,2,2-trifluoro-1-oxoethyl)phenyl]benzenepropanamide] |  |  | Antiviral Activity TD50 [2]: > 100 µM |
| O=C(CCc1ccccc1)Nc1ccccc1C(=O)C(F)(F)F [Example 4, N-[2-(2,2,2-Trifluoro-1-oxoethyl)phenyl]benzenepropanamide] | 49 µM |  |  |
| O=C(Nc1ccccc1C(=O)C(F)(F)F)OCc1ccccc1 [Example 6, Phenylmethyl N-[2-(2,2,2-trifluoro-1-oxoethyl)phenyl]carbamate] | 17 µM |  |  |
| O=C(Nc1ccccc1C(=O)C(F)(F)F)C(F)(F)F [Example 10, α,α,α-Trifluoro-N-[2-(2,2,2-trifluoro-1-oxoethyl)phenyl]acetamide] |  |  | Antiviral Activity TD50 (μM) [2]: >100/>100 μM |
| O=C(Nc1ccccc1C(=O)C(F)(F)F)c1cnccn1 [Example 5, N-[2-(2,2,2-Trifluoro-1-oxoethyl)phenyl]pyrazine-2-carboxamide] | 3.7 µM |  | Antiviral Activity TD50 ([3]; 3 days): > 100 µM; Chymotrypsin % @ Conc. (μM) ([4]; @ 300 μM): 0% @ 300 |
| O=C(Nc1ccccc1C(=O)C(F)(F)F)c1ccco1 [Example 1, N-[2-(2,2,2-Trifluoro-1-oxoethyl)phenyl]furan-2-carboxamide] | 7.7 µM |  | Chymotrypsin % @ Conc. (μM) ([4]; @ 300 μM): 0% @ 300 |

Reference: patent publication US6673788B2, “Electrophilic ketones for the treatment of herpesvirus infections” (G. D. Searle & Co., priority 1996, dated 2004)
